Experimental data from patent publication US20250034170A1, “SMALL MOLECULE MODULATORS OF GLUCOCEREBROSIDASE ACTIVITY AND USES THEREOF” (Vanqua Bio, Inc., priority 2021, published 2025).

Target: T1, GCase (Homo sapiens, UniProt P04062)
T1 construct: endogenous in cells; host or cells: HeLa cells
T1 sequence (P04062 40-536): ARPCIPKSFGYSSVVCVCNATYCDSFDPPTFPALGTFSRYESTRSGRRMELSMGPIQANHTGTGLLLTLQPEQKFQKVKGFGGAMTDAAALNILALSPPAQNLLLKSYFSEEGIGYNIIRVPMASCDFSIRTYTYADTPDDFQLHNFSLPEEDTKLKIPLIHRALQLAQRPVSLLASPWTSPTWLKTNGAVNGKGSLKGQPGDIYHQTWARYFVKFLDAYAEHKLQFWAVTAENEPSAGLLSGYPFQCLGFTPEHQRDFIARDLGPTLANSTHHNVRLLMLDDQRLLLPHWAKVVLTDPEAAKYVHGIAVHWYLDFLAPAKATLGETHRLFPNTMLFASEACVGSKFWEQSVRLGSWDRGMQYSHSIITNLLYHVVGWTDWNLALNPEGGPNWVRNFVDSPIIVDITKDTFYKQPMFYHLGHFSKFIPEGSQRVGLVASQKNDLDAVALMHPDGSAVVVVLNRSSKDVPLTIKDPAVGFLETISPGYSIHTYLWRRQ
Test: activation of GCase in a live cell PFB assay in HELA cells
Type: cell-based
Settings: activation of GCase, EC50 ranges
Description: Exemplary compounds were evaluated for activation of GCase in a live cell PFB assay in HELA cells (essentially as described in Ysselstein et al., “LRRK2 kinase activity regulates lysosomal glucocerebrosidase in neurons derived from Parkinson's disease patients” Nature Communications (2019) 10:5570). […] EC50 ranges: A: <10 μM; B: >10-50 μM; C: >50-100 μM; D: >100 μM.

| SMILES | EC50 [µM] |
| --- | --- |
| Cc1cc(N2CCC3(CCN(c4nc5c(cnn5CC(F)F)c(=O)n4C)CC3)C2)nc(C(F)(F)F)n1 [Cmpd 1087] | < 10 |
| CC(F)(F)c1ncc(N2CC3(CCN(c4cnc5cnn(CC(F)F)c5n4)C3)C2)cn1 [Cmpd 1088] | < 10 |
| CCc1nc(N2CC3(CCN(c4cnc5cnn(CC(F)F)c5n4)C3)C2)cc(C(F)(F)F)n1 [Cmpd 1089] | 10 to 50 |
| FC(F)(F)c1cc(N2CC3(CCN(c4cnc5cnn(C6CCOCC6)c5n4)C3)C2)ccn1 [Cmpd 1090] | > 100 |
| FC(F)(F)c1cc(N2CC3(CCN(c4cnc5cnn([C@@H]6CCOC6)c5n4)C3)C2)ccn1 [Cmpd 1091] | > 100 |
| FC(F)(F)c1cc(N2CC3(CCN(c4cnc5cnn([C@H]6CCOC6)c5n4)C3)C2)ccn1 [Cmpd 1092] | > 100 |
| COc1nn(CC(F)F)c2nc(N3CCC4(C3)CN(c3cnc(C(F)(F)F)nc3C)C4)cnc12 [Cmpd 1093] | 10 to 50 |
| COc1nn(CC(F)F)c2nc(N3CCC4(CC3)CCN(c3cnc(C(F)(F)F)nc3C)C4)cnc12 [Cmpd 1094] | < 10 |
| COc1nn(CC(F)F)c2nc(N3CCC4(CN(c5cc(C(F)(F)F)nc(C)n5)C4)C3)cnc12 [Cmpd 1095] | 10 to 50 |
| COc1nn(CC(F)F)c2nc(N3CCC4(CCN(c5cc(C(F)(F)F)nc(C)n5)C4)CC3)cnc12 [Cmpd 1096] | < 10 |
| COc1nn(CC(F)F)c2nc(N3CCC4(CN(c5cc(C)nc(C(F)(F)F)n5)C4)C3)cnc12 [Cmpd 1097] | 10 to 50 |
| COc1nn(CC(F)F)c2nc(N3CCC4(CCN(c5cc(C)nc(C(F)(F)F)n5)C4)CC3)cnc12 [Cmpd 1098] | < 10 |
| CCn1c(N2CCC3(CCN(c4ccnc(C(F)(F)F)c4)C3)CC2)nc2c(cnn2CC(F)F)c1=O [Cmpd 1099] | < 10 |
| CCn1c(N2CCC3(CCN(c4ccnc(C(F)(F)F)c4)C3)C2)nc2c(cnn2CC(F)F)c1=O (stereo not drawn) [Cmpd 1100] | 10 to 50 |
| CCn1c(N2CCC3(CN(c4ccnc(C(F)(F)F)c4)C3)C2)nc2c(cnn2CC(F)F)c1=O [Cmpd 1101] | 10 to 50 |
| CCn1c(N2CCC3(CCN(c4cc(C(F)(F)F)nc(C)n4)C3)CC2)nc2c(cnn2CC(F)F)c1=O [Cmpd 1102] | < 10 |
| CCn1c(N2CCC3(CN(c4cc(C(F)(F)F)nc(C)n4)C3)C2)nc2c(cnn2CC(F)F)c1=O [Cmpd 1103] | < 10 |
| Cc1nn(CC(F)F)c2nc(N3CCC4(CCN(c5ccnc(C(F)(F)F)c5)C4)CC3)n(C)c(=O)c12 [Cmpd 1104] | 10 to 50 |
| CCn1c(N2CCC3(CCN(c4cc(C)nc(C(F)(F)F)n4)C3)CC2)nc2c(cnn2CC(F)F)c1=O [Cmpd 1105] | < 10 |
| CCCn1c(N2CCC3(CCN(c4cc(C(F)(F)F)nc(C)n4)C3)CC2)nc2c(cnn2CC(F)F)c1=O [Cmpd 1106] | < 10 |
| Cc1nc(N2CCC3(CCN(c4nc5c(cnn5CC(F)F)c(=O)n4CC(C)C)CC3)C2)cc(C(F)(F)F)n1 [Cmpd 1107] | < 10 |
| Cc1nc(N2CCC3(CCN(c4nc5c(cnn5CC(F)F)c(=O)n4CC4CC4)CC3)C2)cc(C(F)(F)F)n1 [Cmpd 1108] | < 10 |
| CCn1c(N2CCC3(CCN(c4cc(C(F)(F)F)nc(C)n4)C3)CC2)nc2c(cnn2C2COC2)c1=O [Cmpd 1110] | 50 to 100 |
| CCCn1c(N2CCC3(CN(c4cc(C(F)(F)F)nc(C)n4)C3)C2)nc2c(cnn2CC(F)F)c1=O [Cmpd 1111] | 10 to 50 |
| Cc1nc(N2CC3(CCN(c4nc5c(cnn5CC(F)F)c(=O)n4CC(C)C)C3)C2)cc(C(F)(F)F)n1 [Cmpd 1112] | < 10 |

The remaining lines, values ahead:

| EC50 [µM] | SMILES |
| --- | --- |
| 10 to 50 | Cc1nc(N2CC3(CCN(c4nc5c(cnn5CC(F)F)c(=O)n4CC4CC4)C3)C2)cc(C(F)(F)F)n1 [Cmpd 1113] |
| < 10 | CCn1c(N2CCC3(CN(c4cc(C(F)(F)F)nc(C)n4)C3)C2)nc2c(cnn2CC(F)(F)F)c1=O [Cmpd 1114] |
| 10 to 50 | CCn1c(N2CCC3(CN(c4cc(C(F)(F)F)nc(C)n4)C3)C2)nc2c(cnn2C2COC2)c1=O [Cmpd 1115] |
| 10 to 50 | CC(F)(F)Cn1ncc2ncc(N3CCC4(CN(c5ccnc(C(F)(F)F)c5)C4)C3)nc21 [Cmpd 1116] |
| > 100 | Cc1nc(N2CC3(CCN(c4cnc5cnn(CC(C)(F)F)c5n4)C3)C2)cc(C(F)(F)F)n1 [Cmpd 1117] |
| > 100 | Cc1nc(N2CC3(CCN(c4cncc(-c5ccn(CC(F)F)n5)n4)C3)C2)cc(C(F)(F)F)n1 [Cmpd 1118] |
| 10 to 50 | Cc1nc(N2CC3(CCN(c4cncc(-c5ccnn5CC(F)F)n4)C3)C2)cc(C(F)(F)F)n1 [Cmpd 1119] |
| > 100 | Cc1nc(N2CC3(CCN(c4cncc(-c5ccn(CC(F)(F)F)n5)n4)C3)C2)cc(C(F)(F)F)n1 [Cmpd 1120] |
| > 100 | Cc1nc(N2CC3(CCN(c4cncc(-c5ccnn5CC(F)(F)F)n4)C3)C2)cc(C(F)(F)F)n1 [Cmpd 1121] |
| 10 to 50 | Cc1nc(N2CC[C@]3(CCN(c4cnc5c(C)nn(C6COC6)c5n4)C3)C2)cc(C(F)(F)F)n1 [Cmpd 1122] |
| 10 to 50 | Cc1nc(N2CC[C@@]3(CCN(c4cnc5c(C)nn(C6COC6)c5n4)C3)C2)cc(C(F)(F)F)n1 [Cmpd 1123] |
| 50 to 100 | Cc1nc(N2CC3(CCN(c4cncc(-c5cnn(CC(F)F)c5)n4)C3)C2)cc(C(F)(F)F)n1 [Cmpd 1124] |
| 10 to 50 | CC(C)(C)Cn1ncc2ncc(N3CCC4(CN(c5ccnc(C(F)(F)F)c5)C4)C3)nc21 [Cmpd 1125] |
| < 10 | CC(C)Cn1ncc2ncc(N3CCC4(CN(c5ccnc(C(F)(F)F)c5)C4)C3)nc21 [Cmpd 1126] |
| < 10 | Cc1nc(N2CC3(CCN(c4ncc5c(C)nn(CC(C)(F)F)c5n4)C3)C2)cc(C(F)(F)F)n1 [Cmpd 1127] |
| 10 to 50 | Cc1nc(N2CC3(CCN(c4cnc5c(C)nn(CC(C)(F)F)c5n4)C3)C2)cc(C(F)(F)F)n1 [Cmpd 1128] |
| < 10 | Cc1cc(N2CC3(CCN(c4cnc5c(C)nn(CC(C)(F)F)c5n4)C3)C2)nc(C(F)(F)F)n1 [Cmpd 1129] |
| < 10 | Cc1cc(N2CC3(CCN(c4ncc5c(C)nn(CC(C)(F)F)c5n4)C3)C2)nc(C(F)(F)F)n1 [Cmpd 1130] |
| > 100 | Cc1nc(N2CC3(CCN(c4nccc(-c5nncs5)n4)C3)C2)cc(C(F)(F)F)n1 [Cmpd 1131] |

| EC50 [µM] | SMILES |
| --- | --- |
| 10 to 50 | FC(F)Cn1ncc2ncc(N3CC[C@@]4(CCN(c5cnc(C(F)(F)F)nc5)C4)C3)nc21 [Cmpd 1132] |
| 10 to 50 | FC(F)Cn1ncc2ncc(N3CC[C@]4(CCN(c5cnc(C(F)(F)F)nc5)C4)C3)nc21 [Cmpd 1133] |
| > 100 | Cc1cc(N2CC3(CCN(c4cnc5cnn(CC(C)(F)F)c5n4)C3)C2)nc(C(F)(F)F)n1 [Cmpd 1134] |
| 10 to 50 | Cc1nc(N2CC3(CCN(c4ncc5cnn(CC(C)(F)F)c5n4)C3)C2)cc(C(F)(F)F)n1 [Cmpd 1135] |
| < 10 | CCn1nc(C(F)(F)F)c2ncc(N3CCC4(CN(c5cc(C(F)(F)F)nc(C)n5)C4)C3)nc21 [Cmpd 1136] |
| 50 to 100 | Cc1nc(N2CC3(CCN(c4cnc5cnn(CC(F)F)c5n4)C3)C2)c(F)c(C(F)(F)F)n1 [Cmpd 1137] |
| 10 to 50 | Cc1nc(C(F)(F)F)nc(N2CC3(CCN(c4cnc5cnn(CC(F)F)c5n4)C3)C2)c1F [Cmpd 1138] |
| < 10 | Cc1nc(C(F)F)cc(N2CC3(CCN(c4cnc5cnn(CC(F)F)c5n4)C3)C2)n1 [Cmpd 1139] |
| < 10 | Cc1cc(N2CC3(CCN(c4cnc5cnn(CC(F)F)c5n4)C3)C2)nc(C(F)F)n1 [Cmpd 1140] |
| < 10 | Cn1c(=O)n(C2COC2)c2nc(N3CCC4(CN(c5ccnc(C(F)(F)F)c5)C4)C3)ncc21 [Cmpd 1141] |
| < 10 | Cn1c(=O)n(CC(F)F)c2nc(N3CCC4(CN(c5ccnc(C(F)(F)F)c5)C4)C3)ncc21 [Cmpd 1142] |
| < 10 | Cc1cc(N2CC3(CCN(c4cnc5c(C)nn(C6COC6)c5n4)C3)C2)nc(C(F)(F)F)n1 [Cmpd 1143] |
| < 10 | Cc1nc(N2CC3(CCN(c4cnc5cnn([C@@H]6CCOC6)c5n4)C3)C2)cc(C(F)(F)F)n1 [Cmpd 1144] |
| 10 to 50 | Cc1nc(N2CC3(CCN(c4cnc5cnn([C@H]6CCOC6)c5n4)C3)C2)cc(C(F)(F)F)n1 [Cmpd 1145] |
| 10 to 50 | Cc1cc(N2CC3(CCN(c4cnc5cnn([C@H]6CCOC6)c5n4)C3)C2)nc(C(F)(F)F)n1 [Cmpd 1146] |
| < 10 | Cc1cc(N2CC3(CCN(c4cnc5cnn([C@@H]6CCOC6)c5n4)C3)C2)nc(C(F)(F)F)n1 [Cmpd 1147] |
| < 10 | FC(F)Cn1ncc2ncc(N3CCC4(CC3)CN(c3cc(C(F)(F)F)ccn3)C4)nc21 [Compound 1, 7-[1-(2,2-difluoroethyl)-1H-pyrazolo[3,4-b]pyrazin-6-yl]-2-[4-(trifluoromethyl)pyridin-2-yl]-2,7-diazaspiro[3.5]nonane] |
| < 10 | FC(F)(F)c1ccncc1OC1CC2(CCCN(c3cncc(-c4nncs4)n3)C2)C1 (stereo not drawn) [Compound 2, 6-[6-(1,3,4-thiadiazol-2-yl)pyrazin-2-yl]-2-{[4-(trifluoromethyl)pyridin-3-yl]oxy}-6-azaspiro[3.5]nonane] |
| < 10 | FC(F)Cn1ncc2ncc(N3CC4(CCN(c5cc(C(F)(F)F)ccn5)CC4)C3)nc21 [Compound 3, 2-[1-(2,2-difluoroethyl)-1H-pyrazolo[3,4-b]pyrazin-6-yl]-7-[4-(trifluoromethyl)pyridin-2-yl]-2,7-diazaspiro[3.5]nonane] |
